Laboratory results reported in PubChem BioAssay (NCI).
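A five-concentration, 48-hour dose response in 96-well plates underlies each endpoint, interpolated linearly between surrounding concentrations. At the TGI there is no net growth.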

Columns and labels:
Assay in all cases: growth of human tumour cells (NCI), 48 h
[1] = test system: BT-549 breast
[2] = test system: NCI-H226 lung
[3] = test system: MALME-3M melanoma
[4] = test system: COLO 205 colon
[5] = test system: MDA-N
[6] = test system: MDA-MB-231 breast
[7] = test system: HOP-62 NSCLC
[8] = test system: MOLT-4 leukemia
[9] = test system: A498 renal
[10] = test system: DU-145 prostate
[11] = test system: EKVX NSCLC
[12] = test system: OVCAR-8 ovarian
[13] = test system: SF-268 CNS
[14] = test system: T-47D breast
[15] = test system: HS 578T breast
[16] = test system: K-562 leukemia
[17] = test system: HOP-92 NSCLC
[18] = test system: HL-60(TB) leukemia
[19] = test system: OVCAR-3 ovarian
[20] = test system: SF-539 CNS
[21] = test system: MDA-MB-435
[22] = test system: SNB-75 CNS
[23] = test system: CCRF-CEM leukemia
[24] = test system: TK-10 renal
[25] = test system: SK-MEL-28 melanoma
[26] = test system: SN12C renal
[27] = test system: 786-0 renal
[28] = test system: SR leukemia
[29] = test system: HT29 colon
[30] = test system: LOX IMVI melanoma
[31] = test system: NCI-H23 lung
[32] = test system: RXF 393 renal
[33] = test system: RPMI-8226 leukemia
[34] = test system: SK-MEL-5 melanoma
[35] = test system: A549 NSCLC
[36] = test system: CAKI-1 renal
[37] = test system: NCI-H522 lung
[38] = test system: HCT-15 colon
[39] = test system: SF-295 CNS
[40] = test system: UACC-62 melanoma
[41] = test system: NCI-H460 lung
[42] = test system: PC-3 prostate
[43] = test system: HCT-116 colon
[44] = test system: HCC-2998 colon
[45] = test system: OVCAR-5 ovarian
[46] = test system: NCI/ADR-RES ovarian
[47] = test system: IGROV1 ovarian
[48] = test system: SW-620 colon
[49] = test system: ACHN renal
[50] = test system: UACC-257 melanoma
[51] = test system: SK-OV-3 ovarian
[52] = test system: KM12 colon
[53] = test system: OVCAR-4 ovarian
[54] = test system: MCF7 breast
[55] = test system: M14 melanoma
[56] = test system: U251 CNS
[57] = test system: SK-MEL-2 melanoma
[58] = test system: UO-31 renal
[59] = test system: SNB-19 CNS

COC(=O)C1(Cc2ccccc2)Cc2cc3c(cc2C1O)CCC3 (stereo not given)
TGI [1]: 31.9 µM
TGI [2]: 41.3 µM
TGI [3]: 30.7 µM
TGI [4]: 48.1 µM
TGI [5]: 34.6 µM
TGI [6]: 38.1 µM
TGI [7]: 36.9 µM
TGI [8]: 42.9 µM
TGI [9]: 40.2 µM
TGI [10]: 70.8 µM
TGI [11]: 50.4 µM
TGI [12]: 65.4 µM
TGI [13]: > 100 µM
TGI [14]: 62.9 µM
TGI [15]: 34.7 µM
TGI [16]: 67.6 µM
TGI [17]: 30.6 µM
TGI [18]: > 100 µM
TGI [19]: 31.7 µM
TGI [20]: 36.7 µM
TGI [21]: 32.2 µM
TGI [22]: > 100 µM
TGI [23]: 60.1 µM
TGI [24]: 67.2 µM
TGI [25]: 32.4 µM
TGI [26]: 33.3 µM
TGI [27]: 28.9 µM
TGI [28]: > 100 µM
TGI [29]: 31.6 µM
TGI [30]: 34.7 µM
TGI [31]: 38.4 µM
TGI [32]: 32.5 µM
TGI [33]: 54.9 µM
TGI [34]: 29.3 µM
TGI [35]: 59 µM
TGI [36]: 31.3 µM
TGI [37]: 34.4 µM
TGI [38]: > 100 µM
TGI [39]: 72 µM
TGI [40]: 32.6 µM
TGI [41]: > 100 µM
TGI [42]: 37.3 µM
TGI [43]: 31.8 µM
TGI [44]: 60.6 µM
TGI [45]: 30.4 µM
TGI [46]: 76.8 µM
TGI [47]: 32.1 µM
TGI [48]: 30 µM
TGI [49]: 31.9 µM
TGI [50]: 42.9 µM
TGI [51]: 36 µM
TGI [52]: 48.3 µM
TGI [53]: 41.7 µM

COc1cccc(CCNc2c(C#N)c3n(c4ccccc4[n+]3C)c3ncccc23)c1
TGI [1]: 49.5 µM
TGI [2]: 45.9 µM
TGI [3]: 32.6 µM
TGI [4]: 10.5 µM
TGI [5]: 11.1 µM
TGI [6]: 6.89 µM
TGI [7]: 43.8 µM
TGI [8]: 7.45 µM
TGI [9]: 57 µM
TGI [10]: 11.3 µM
TGI [54]: 5.13 µM
TGI [11]: 36.5 µM
TGI [55]: 3.08 µM
TGI [12]: 3.87 µM
TGI [56]: > 21.3 µM
TGI [13]: 38.5 µM
TGI [14]: 14.7 µM
TGI [15]: 15 µM
TGI [16]: > 100 µM
TGI [17]: > 58.9 µM
TGI [57]: 43.3 µM
TGI [19]: 48 µM
TGI [20]: 3.55 µM
TGI [21]: 45.6 µM
TGI [22]: 12.8 µM
TGI [24]: 50.1 µM
TGI [25]: 44.1 µM
TGI [26]: 32.7 µM
TGI [27]: 3.35 µM
TGI [58]: 12 µM
TGI [28]: > 100 µM
TGI [29]: 3.14 µM
TGI [30]: 3.08 µM
TGI [31]: > 56.5 µM
TGI [59]: 18.8 µM
TGI [32]: 38.2 µM
TGI [33]: 6.59 µM
TGI [34]: 28.8 µM
TGI [35]: 4.04 µM
TGI [36]: > 100 µM
TGI [37]: 10.3 µM
TGI [38]: 3.74 µM
TGI [39]: 3.67 µM
TGI [40]: > 59.4 µM
TGI [41]: 3.16 µM
TGI [42]: 31.4 µM
TGI [43]: 5.3 µM
TGI [44]: 3.46 µM
TGI [45]: 34 µM
TGI [46]: > 51 µM
TGI [49]: 36.1 µM
TGI [50]: 46.3 µM
TGI [51]: 42.1 µM
TGI [52]: 4.53 µM
TGI [53]: 10.8 µM

Cc1cc(C)n(-c2nc(C)c(CCO)c(=O)[nH]2)n1
TGI [1]: > 100 µM
TGI [2]: > 100 µM
TGI [3]: > 100 µM
TGI [4]: > 100 µM
TGI [5]: > 100 µM
TGI [6]: > 100 µM
TGI [7]: > 100 µM
TGI [8]: > 100 µM
TGI [10]: > 100 µM
TGI [54]: > 100 µM
TGI [11]: > 100 µM
TGI [55]: > 100 µM
TGI [12]: > 100 µM
TGI [56]: > 100 µM
TGI [13]: > 100 µM
TGI [14]: > 100 µM
TGI [15]: > 100 µM
TGI [16]: > 100 µM
TGI [17]: > 100 µM
TGI [18]: > 100 µM
TGI [19]: > 100 µM
TGI [20]: > 100 µM
TGI [21]: > 100 µM
TGI [22]: > 100 µM
TGI [23]: > 100 µM
TGI [24]: > 100 µM
TGI [25]: > 100 µM
TGI [26]: > 100 µM
TGI [27]: > 100 µM
TGI [58]: > 100 µM
TGI [28]: > 100 µM
TGI [29]: > 100 µM
TGI [30]: > 100 µM
TGI [31]: > 100 µM
TGI [59]: > 100 µM
TGI [32]: > 100 µM
TGI [33]: > 100 µM
TGI [34]: > 100 µM
TGI [35]: > 100 µM
TGI [37]: > 100 µM
TGI [38]: > 100 µM
TGI [39]: > 100 µM
TGI [40]: > 100 µM
TGI [41]: > 100 µM
TGI [42]: > 100 µM
TGI [43]: > 100 µM
TGI [44]: > 100 µM
TGI [45]: > 100 µM
TGI [46]: > 100 µM
TGI [47]: > 100 µM
TGI [48]: > 100 µM
TGI [49]: > 100 µM
TGI [50]: > 100 µM
TGI [51]: > 100 µM
TGI [52]: > 100 µM
TGI [53]: > 100 µM

CN(C)S(=O)(=O)c1nc(Cl)c2[nH]cnc2n1
TGI [1]: > 100 µM
TGI [2]: > 100 µM
TGI [3]: > 100 µM
TGI [4]: > 100 µM
TGI [5]: > 100 µM
TGI [6]: > 100 µM
TGI [7]: > 100 µM
TGI [8]: > 100 µM
TGI [9]: > 100 µM
TGI [10]: > 100 µM
TGI [54]: > 100 µM
TGI [11]: > 100 µM
TGI [55]: > 100 µM
TGI [12]: > 100 µM
TGI [56]: > 100 µM
TGI [13]: > 100 µM
TGI [14]: > 100 µM
TGI [15]: > 100 µM
TGI [16]: > 100 µM
TGI [18]: > 100 µM
TGI [57]: > 100 µM
TGI [19]: > 100 µM
TGI [21]: > 100 µM
TGI [22]: > 100 µM
TGI [23]: > 100 µM
TGI [24]: > 100 µM
TGI [25]: > 100 µM
TGI [26]: > 100 µM
TGI [27]: > 100 µM
TGI [58]: > 100 µM
TGI [28]: > 100 µM
TGI [29]: > 100 µM
TGI [30]: > 100 µM
TGI [31]: > 100 µM
TGI [59]: > 100 µM
TGI [32]: > 100 µM
TGI [33]: > 100 µM
TGI [34]: > 100 µM
TGI [35]: > 100 µM
TGI [36]: > 100 µM
TGI [37]: > 100 µM
TGI [38]: > 100 µM
TGI [39]: > 100 µM
TGI [40]: > 100 µM
TGI [42]: > 100 µM
TGI [43]: > 100 µM
TGI [44]: > 100 µM
TGI [45]: > 100 µM
TGI [46]: > 100 µM
TGI [47]: > 100 µM
TGI [48]: > 100 µM
TGI [49]: > 100 µM
TGI [50]: > 100 µM
TGI [51]: > 100 µM
TGI [52]: > 100 µM
TGI [53]: > 100 µM
